# Assay results taken from the OligoGym collection.
# “And” between values parts separate entries of the source, which are not always exact repeats. Identical values can stand only once. After the bases stand the sugars from the 5' end (letter, count) and the backbone: PS all phosphorothioate, else s phosphorothioate and o phosphodiester by linkage. Methylation of C is not given here. e = 2'-O-(2-methoxyethyl) (MOE); k = constrained ethyl (cEt); d = 2'-deoxy (DNA)
# Target: IRF4
# Details: ASO
Sequence,"target mRNA inhibition (SK-MEL-28, 4 µM)","target mRNA inhibition (MM.1R, 1 µM)",other results
"TCAACCGCTGAACTGA (sugars k3 d10 k3, PS)",35%,,
"TCAAGAGGAACTAGTC (sugars k3 d10 k3, PS)",24%,,
"TCAAGTAAAGTGATCA (sugars k3 d10 k3, PS)",48%,,
"TCACAGATTAATAGTA (sugars k3 d10 k3, PS)",23%,,
"TCACAGTGATCATCAA (sugars k3 d10 k3, PS)",43%,,
"TCACATGATAAGGCAC (sugars k3 d10 k3, PS)",,19%,
"TCACCTGAAGGATTTG (sugars k3 d10 k3, PS)",25%,,
"TCACCTGGCAACCTGC (sugars k3 d10 k3, PS)",25%,,
"TCACGAAACACAGTCT (sugars k3 d10 k3, PS)",68%,,
"TCACTAAGCTTGATAA (sugars k3 d10 k3, PS)",37%,,
"TCAGAAATCACGAGGT (sugars k3 d10 k3, PS)",,,"target mRNA inhibition (MM.1R, 0.0625 µM): -11%; target mRNA inhibition (MM.1R, 0.25 µM): -5%; target mRNA inhibition (MM.1R, 4 µM): 37%"
"TCAGATTTACACCGTT (sugars k3 d10 k3, PS)",,14%,
"TCAGTTTGTGAAGCAT (sugars k3 d9 k3 e1, PS)",,58%,"target mRNA inhibition (MM.1R, 0.074 µM): 28%; target mRNA inhibition (MM.1R, 0.222 µM): 22%; target mRNA inhibition (MM.1R, 0.666 µM): 43%; target mRNA inhibition (MM.1R, 2 µM): 64%"
"TCAGTTTGTGAAGCAT (sugars kddddddddddkekek, PS)",,21%,
"TCAGTTTGTGAAGCAT (sugars kdddddddddkekeke, PS)",,9%,
"TCAGTTTGTGAAGCAT (sugars kkdddddddddekeke, PS)",,45%,
"TCAGTTTGTGAAGCAT (sugars kkdddddddddkekek, PS)",,58%,"target mRNA inhibition (MM.1R, 0.074 µM): 9%; target mRNA inhibition (MM.1R, 0.222 µM): 27%; target mRNA inhibition (MM.1R, 0.666 µM): 46%; target mRNA inhibition (MM.1R, 2 µM): 73%"
"TCAGTTTGTGAAGCAT (sugars kkkddddddddkekek, PS)",,41%,
"TCATGATGTATACCAA (sugars k3 d10 k3, PS)",65%,,
"TCCAACCTTTATGATT (sugars k3 d10 k3, PS)",,-3%,
"TCCACCCTCCGTCTCA (sugars k3 d10 k3, PS)",,-9%,
"TCCAGAAAATTCAGCT (sugars k3 d10 k3, PS)",48%,,
"TCCATTGGAGGAGGGT (sugars k3 d10 k3, PS)",33%,,
"TCCCACTGTCACTATG (sugars k3 d10 k3, PS)",15%,,
"TCCCCGTATCAAAAAA (sugars k3 d10 k3, PS)",-12%,,

Sequence,"target mRNA inhibition (SK-MEL-28, 4 µM)","target mRNA inhibition (MM.1R, 1 µM)",other results
"TCCCGAGGCCGGAGAC (sugars k3 d10 k3, PS)",-27%,,
"TCCCTAGGTCATACCC (sugars k3 d10 k3, PS)",58%,,
"TCCCTCCAGCTTCGGT (sugars k3 d10 k3, PS)",,-21%,
"TCCGCTTGGAGAATTA (sugars k3 d10 k3, PS)",13%,,
"TCCTAACCCTACCCTT (sugars k3 d10 k3, PS)",30%,,
"TCCTAGGTTTCAGTTG (sugars k3 d10 k3, PS)",48%,,
"TCCTATGGTCAGCCTC (sugars k3 d10 k3, PS)",48%,,
"TCCTGGCAGTGCTCTC (sugars k3 d10 k3, PS)",60%,,
"TCCTGTAGTATGAGAA (sugars k3 d10 k3, PS)",,22%,
"TCCTTTCCTACAGATC (sugars k3 d10 k3, PS)",33%,,
"TCGAGATCAGTCTCAA (sugars k3 d10 k3, PS)",58% and 82%,,
"TCGCCCATGAGTTGAA (sugars k3 d10 k3, PS)",39%,,
"TCGGTCCACATACCTG (sugars k3 d10 k3, PS)",39%,,
"TCTAAACCAGCATATT (sugars k3 d10 k3, PS)",33%,,
"TCTAAGGCAAGCTGAA (sugars k3 d10 k3, PS)",21%,,
"TCTACAAGGTCTGAGT (sugars k3 d10 k3, PS)",57%,,
"TCTATAAGATGTATAC (sugars k3 d10 k3, PS)",26%,,
"TCTATAGTGTTCCAGG (sugars kdddddddddkekeke, PS)",,12%,
"TCTATGGGATTATATA (sugars k3 d10 k3, PS)",26%,,
"TCTCAAGGAGATCCAC (sugars k3 d10 k3, PS)",1%,,
"TCTCACGCAGTGCACC (sugars k3 d10 k3, PS)",44%,,
"TCTGAATTGTTACTAA (sugars k3 d10 k3, PS)",35%,,
"TCTGAGCAGAACGAGG (sugars k3 d10 k3, PS)",47%,,
"TCTGAGGGTCTGGAAA (sugars k4 d8 k4, PS)",3%,,
"TCTGATCCGGACTCTC (sugars k3 d10 k3, PS)",41%,,

Sequence,"target mRNA inhibition (SK-MEL-28, 4 µM)","target mRNA inhibition (MM.1R, 1 µM)",other results
"TCTTACTCCGCTGAGT (sugars k3 d10 k3, PS)",35%,,
"TCTTATGCATGTTCCT (sugars k3 d10 k3, PS)",62%,,
"TCTTTATAGTAGGTAA (sugars k3 d10 k3, PS)",,14%,
"TCTTTATGCGAAGAAT (sugars k3 d10 k3, PS)",42%,,
"TGACAGCCGAAGCATT (sugars k3 d10 k3, PS)",38%,,
"TGACATAAAGGACCCC (sugars k3 d10 k3, PS)",48%,,
"TGAGAAAGCATGGCTC (sugars k3 d10 k3, PS)",40%,,
"TGAGACTACACCTACA (sugars k3 d10 k3, PS)",19%,,
"TGAGAGTAAACTTGGC (sugars k3 d10 k3, PS)",65%,20%,"target mRNA inhibition (MM.1R, 0.0625 µM): -3%; target mRNA inhibition (MM.1R, 0.074 µM): 5%; target mRNA inhibition (MM.1R, 0.222 µM): 1%; target mRNA inhibition (MM.1R, 0.25 µM): 11%; target mRNA inhibition (MM.1R, 0.666 µM): 18%; target mRNA inhibition (MM.1R, 2 µM): 32%; target mRNA inhibition (MM.1R, 4 µM): 44%"
"TGAGATGCGGAGGTTC (sugars k3 d10 k3, PS)",,33% and 27%,
"TGATAAAGGCTGAACT (sugars k3 d10 k3, PS)",41%,,
"TGATAGCTGAGCTGAT (sugars kddddddddddkekek, PS)",,22%,
"TGATGGAGAAACGAGC (sugars k3 d10 k3, PS)",,-2%,
"TGATGTGATAGCTGAG (sugars kdddddddddkekeke, PS)",,47%,
"TGCATAGTGATGAGAT (sugars k3 d10 k3, PS)",37%,,
"TGCCAAAGAGCCCAAT (sugars k3 d10 k3, PS)",,-19%,
"TGCCACAGTTGAACCC (sugars k3 d10 k3, PS)",50%,,
"TGCCAGTTCCTTGTGA (sugars k3 d10 k3, PS)",,-2%,
"TGCCCAATACATATCC (sugars k3 d10 k3, PS)",59%,,
"TGCCGAACTCTCCGCC (sugars k3 d10 k3, PS)",43%,,
"TGCCTTACCTGACAAG (sugars k3 d10 k3, PS)",,4%,
"TGCCTTGTGACATAAA (sugars k3 d10 k3, PS)",45%,,
"TGCTAAAGGAGTGCAG (sugars k3 d10 k3, PS)",,-17%,
"TGCTAGATTCTCCCTG (sugars k3 d10 k3, PS)",33%,,
